Assay results as given in US6368632B1, “Microencapsulated 3-piperidinyl-substituted 1,2-benzisoxazoles and 1,2-benzisothiazoles” (Janssen Pharmaceutica, priority 1993, dated 2002).

Key:
dopamine-D2 = dopamine-D2 (Homo sapiens, UniProt P14416); conditions: Janssen et al., J. Pharmacol. Exp. Ther. 244 (2):685-693 (1988); cited from earlier work
[1] = Solubility in the real time in vitro dissolution receiving medium; conditions: 50 mM tris buffer, 37 °C, pH 7.4, aqueous buffer

Chain of dopamine-D2 (P14416 whole entry): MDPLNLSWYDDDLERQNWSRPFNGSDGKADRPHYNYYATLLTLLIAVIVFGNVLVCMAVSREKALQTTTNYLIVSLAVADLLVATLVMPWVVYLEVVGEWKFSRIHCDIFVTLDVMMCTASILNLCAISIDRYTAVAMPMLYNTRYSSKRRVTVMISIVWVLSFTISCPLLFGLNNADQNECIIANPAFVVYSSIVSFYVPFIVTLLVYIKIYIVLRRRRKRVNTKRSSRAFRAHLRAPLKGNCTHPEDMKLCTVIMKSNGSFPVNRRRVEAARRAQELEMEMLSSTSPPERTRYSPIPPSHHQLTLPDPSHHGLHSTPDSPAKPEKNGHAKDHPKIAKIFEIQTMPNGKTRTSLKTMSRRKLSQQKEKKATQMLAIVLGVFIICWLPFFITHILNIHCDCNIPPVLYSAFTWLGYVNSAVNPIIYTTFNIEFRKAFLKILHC

Cc1nc2n(c(=O)c1CCN1CCC(c3noc4cc(F)ccc34)CC1)CCCC2 [Risperidone, 3-[2-[4-(6-fluoro-1,2-benzisoxazol-3-yl)-1-piperidinyl)ethyl]-6,7,8,9-tetrahydro-2-methyl-4H -pyrido[1,2-a]pyrimidin-4-one]
activity in tests related to dopamine-D2 antagonism (dopamine-D2): showed activity in all tests related to dopamine-D2 antagonism | solubility [1]: ≥ 500 µg/mL
